Results published in US8750968B2, “Device and procedure for the diagnosis or diagnostic preparation and/or therapy monitoring of inflammatory diseases such as rheumatoid arthritis” (MIVENION GmbH, priority 2007, dated 2014).

Assays:
[1] = system: activated rheumatoid arthritis; test: activity value AKT from ICG fluorescence imaging of both hands, two examinations four weeks apart; format: in vivo, human; conditions: for activity value AKT: current examination vs four weeks before, values less than 1 indicate a decrease in disease activity
Description: A correction factor (CF) is determined after the calculation of the average AUCRef value above the fingernails. The quotient of the mean AUCRef value and the correction factor (CF) should result in a reference factor (RF) with a value of 100. CF=mean AUCRef/100(RF) 100(RF)=mean AUCRef/CF
Each of the obtained 28 AUC values of the interphalangeal articulations of the hands is processed by mathematical correlation. By dividing the AUC values by CF, corrected AUC values (AUCcorr) are obtained for the ROI above the respective interphalangeal articulations of the hands. AUCcorr=AUC/CF
The inventive process is further characterized by the layout of a method that allows the comparison of different examinations on the same patient. This method should compensate the different levels of the fluorescence signal intensity that result from the variable pharmacokinetics of ICG. The correction factor (CF) is calculated for each measurement leading to the formation of the signal intensity curve. Any number or any type of examinations can be assigned to one another by means of the CF of the ROI above the fingernails. Due to the division of the AUCcorr values from an arbitrary examination by CF, they can be directly compared with other AUCcorr values from previous examinations. The equation for calculating an arbitrary examination n is as follows: AUCcorr(n)=AUC(n)/CF(n)
The value AKT for the time-dependent disease activity results from the possibility of direct comparability of the corrected AUC values. The formula for calculating the activity value AKT of any two examinations over time is as follows: AKT=AUCcorr(n)/AUCcorr(n-1)
Values greater than 1 point out an increasing disease activity, respectively a deterioration of the result, whereas values less than 1 indicate an enhancement of the result, respectively a decrease in disease activity.
Methods and implementation: Intravenous injection of indocyanine green (ICG pulsion) at a dose of 0.2 mg/kg. Bolus injection for about 5 s, the measurement time 0 corresponds to the termination of the Injection. Measuring device: simultaneous measurement of both the hands, illumination surface about 20 cm×30 cm, LEDs, excitation wavelength of 775 nm, detection >800 nm (2 long-pass interference filters, each of whose λ50%=800 nm), iCCD camera with standard lens (water/Peltier-type cooling).
Data collection (image capture) for both the hands up to 10 minutes after the injection with a cycle time of 3 s (20 frames/min). […]
The activity values AKT are calculated by dividing each of the corrected results of the […] examination by each of the corresponding corrected results of the second examination respectively.

[2] = system: activated rheumatoid arthritis; test: clinical examination and patient report after four weeks of intensive therapy; format: in vivo, human; conditions: four weeks after start of therapy
Description: Patient, weight 59 kg. Patient with an acute progression of rheumatoid arthritis and damage to the joints DIP-R3, PIP-R3 and PIP-R4. The patient was examined twice: the current examination as well as four weeks before the current examination. An intensive therapy using Infliximab® was administered upon the diagnosis of an activated rheumatoid arthritis four weeks before the current examination.

In the case of Infliximab [Infliximab®], the “activity value AKT” value ([1]; joint DIP-R3) is reported as 0.71, the “activity value AKT” value ([1]; joint PIP-R3) is reported as 0.65 and the “activity value AKT” value ([1]; joint printed PIP-84) is reported as 0.911. For the same substance, the “effectiveness of the ongoing intensified therapy” value ([1]; patient, after four weeks of therapy) was “could be quantitatively demonstrated just after four weeks”, the “subjective perception of the disease (morning stiffness, pain sensations)” value ([2]; patient report) was “improvement in the subjective perception of the disease” and the “clinical examination result (inflammation of the diseased joints)” value ([2]; patient) was “essentially unchanged result with only a low-level decline in the inflammation of the diseased joints”.
